According to paper PMC6952396, “Structural basis for itraconazole-mediated NPC1 inhibition” (Nature Communications, 2020):
“Also recorded” adds a separate entry of the source.

Columns and labels:
[1] = system: T1, human NPC1; experiment: P-X cross-linking to purified NPC1; assay type: binding; conditions: for competition with cross-linking of P-X to purified NPC1: 0.3 μM P-X, amphipol-reconstituted NPC1 without detergent, in-gel fluorescence
T1 construct: Strep-tag; made in house; host or cells: HEK-293S GnTI- cells (baculovirus-mediated transduction)
Procedure: To determine the binding site for itraconazole on NPC1, we expressed and purified the NPC1 protein using n-dodecyl β-D-maltoside (DDM) as the detergent. The protein was then incorporated into amphipol A8-35 and the detergent was removed with bio-beads and further separated by gel filtration in phosphate buffered saline (PBS).
For Cross-Linking of P-X to purified NPC1 protein, each reaction contained 0.5 μg of indicated protein, 0.3 μM P-X, and various amounts of itraconazole in a final volume of 100 μL of buffer containing 50 mM Hepes pH7.5 and 150 mM NaCl with or without 0.1% Digitonin (Calbiochem). After incubation for 1 h at 37 °C, the mixture was subjected to UV cross-linking for 10 min and then tagged with Alexa Fluor 532 by means of copper-catalyzed azide-alkyne cycloaddition (click chemistry)[22],[41]. The reactions were carried out by mixing an aliquot of each mixture (50 μL), in a final volume of 58.5 μL, with 3 μL of 1.7 mM Tris[(1-benzyl-1H-1,2,3-triazol-4-yl) methyl] amine (TBTA), 2 μL of 50 mM CuSO4, 1 μL of 50 mM Tris(2-carboxyethyl) phosphine (TCEP), 1.5 μL 10% SDS and 1 μL of 1.25 mM Alexa Fluor 532 azide. The mixture was incubated at room temperature for 1 h.
To visualize the fluorescent-labeled proteins by in-gel fluorescence, 20 μL. aliquots of each sample were mixed with 4x loading dye and subjected to 8% SDS/PAGE, after which the gels were scanned with a Typhoon image scanner (GE Healthcare; filter setting: excitation, […]; emission, 555 nm; high sensitivity). After scanning the gel, the proteins were transferred to nitrocellulose and blotted with rabbit monoclonal anti-NPC1 as indicated in the figure legends.
Human NPC1 protein was expressed and purified as previously described, except for using Strep-tag instead of His-tag. Briefly, the protein was expressed using baculovirus-mediated transduction of mammalian HEK-293S GnTI^− cells (ATCC, CRL-3022). At 48 h post infection, the cells were disrupted by sonication in buffer B, containing 20 mM Hepes, pH7.5, 150 mM NaCl with 1 mM PMSF and 5 μg/mL leupeptin. After low speed centrifugation, the resulting supernatant was incubated in buffer B with 1% (w/v) DDM for 1 h at 4 °C. The lysate was centrifuged again, and the supernatant was loaded onto a Strep-Tactin affinity column (IBA). After washing twice, the protein was eluted in 20 mM Hepes, pH7.5, 150 mM NaCl, 2.5 mM desthiobiotin, 0.02% DDM and concentrated. The concentrated protein was further purified by Superdex 200 increase column (GE Healthcare) in buffer B with 0.02% DDM. The peak fractions were mixed with amphipol A8-35 (Anatrace) at 1:3 (w/w) for 4 h. Detergent was removed with Bio-Beads (Bio-Rad) overnight and further separation on a Superdex 200 increase column in PBS (Sigma-Aldrich). […]

[2] = target: T2, NPC1 (Cricetulus griseus, UniProt Q9JLG3); conditions: cited from earlier work; for inhibition of P-X cross-linking to NPC1: cultured cells
T2 construct: CHO-7 cells in the medium are deprived of cholesterol to induce the LDL receptors biosynthesis; endogenous in cells; host or cells: CHO-7 cells
T2 sequence (Q9JLG3 23-1277): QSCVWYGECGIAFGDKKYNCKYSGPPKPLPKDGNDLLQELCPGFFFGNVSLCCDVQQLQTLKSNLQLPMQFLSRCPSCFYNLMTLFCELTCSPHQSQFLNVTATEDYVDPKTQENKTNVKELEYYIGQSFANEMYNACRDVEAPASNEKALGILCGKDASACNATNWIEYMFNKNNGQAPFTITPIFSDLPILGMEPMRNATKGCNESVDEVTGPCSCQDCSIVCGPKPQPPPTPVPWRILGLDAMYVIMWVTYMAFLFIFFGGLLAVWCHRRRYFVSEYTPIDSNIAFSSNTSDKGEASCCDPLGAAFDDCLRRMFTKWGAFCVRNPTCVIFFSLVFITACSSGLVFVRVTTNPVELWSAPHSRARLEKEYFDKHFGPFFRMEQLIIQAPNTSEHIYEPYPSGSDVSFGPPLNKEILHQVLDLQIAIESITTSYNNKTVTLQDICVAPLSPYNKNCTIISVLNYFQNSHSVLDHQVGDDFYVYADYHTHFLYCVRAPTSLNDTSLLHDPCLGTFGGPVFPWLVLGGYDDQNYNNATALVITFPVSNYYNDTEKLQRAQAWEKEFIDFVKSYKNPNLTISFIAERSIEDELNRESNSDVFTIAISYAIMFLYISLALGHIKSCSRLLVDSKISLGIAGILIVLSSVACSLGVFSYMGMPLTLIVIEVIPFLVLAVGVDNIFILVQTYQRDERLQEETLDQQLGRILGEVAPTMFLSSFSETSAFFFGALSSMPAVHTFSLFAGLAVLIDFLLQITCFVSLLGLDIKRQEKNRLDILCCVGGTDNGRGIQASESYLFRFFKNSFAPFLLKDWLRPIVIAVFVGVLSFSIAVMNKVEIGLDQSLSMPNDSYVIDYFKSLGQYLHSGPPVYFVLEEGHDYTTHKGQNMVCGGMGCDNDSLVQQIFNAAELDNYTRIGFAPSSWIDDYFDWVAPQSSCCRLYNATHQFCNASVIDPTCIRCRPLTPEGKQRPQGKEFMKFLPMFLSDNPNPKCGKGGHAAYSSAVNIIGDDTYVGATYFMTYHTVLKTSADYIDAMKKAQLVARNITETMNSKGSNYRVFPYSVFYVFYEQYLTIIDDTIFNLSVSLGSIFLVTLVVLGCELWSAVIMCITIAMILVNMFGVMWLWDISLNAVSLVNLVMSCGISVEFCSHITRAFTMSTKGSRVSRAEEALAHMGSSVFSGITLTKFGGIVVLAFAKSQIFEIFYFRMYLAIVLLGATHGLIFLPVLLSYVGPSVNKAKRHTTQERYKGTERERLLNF

| SMILES | cross-linking of P-X to purified NPC1 ([1]; amphipol-reconstituted NPC1 in PBS without detergent) | cross-linking of P-X to purified NPC1 ([1]; protein solubilized in digitonin) | cross-linking of P-X to NPC1 in cultured cells ([2]; added at nanomolar concentration) | competition with cross-linking of P-X to purified NPC1 [1] | inhibition of P-X cross-linking to NPC1 [2] |
| --- | --- | --- | --- | --- | --- |
| C#CCOc1ccc(C(=O)c2ccc(C(=O)OC(C)C(CC)n3ncn(-c4ccc(N5CCN(c6ccc(OCC7COC(Cn8cncn8)(c8ccc(F)cc8F)O7)cc6)CC5)cc4)c3=O)cc2)cc1 (stereo not shown) [P-X] | can cross-link | not when the protein was solubilized in digitonin | can be cross-linked |  |  |
| CCC(C)n1ncn(-c2ccc(N3CCN(c4ccc(OCC5COC(Cn6cncn6)(c6ccc(Cl)cc6Cl)O5)cc4)CC3)c(Br)c2)c1=O (stereo not shown) [I-Br] |  |  |  | binds to NPC1 in a similar manner to the itraconazole mixture; also recorded: competes |  |
| CC(=O)N1CCN(c2ccc(OCC3COC(Cn4ccnc4)(c4ccc(Cl)cc4Cl)O3)cc2)CC1 (stereo not shown) [Ketoconazole, ketoconazole] |  |  |  |  | did not block |
| CCC(C)n1ncn(-c2ccc(N3CCN(c4ccc(OCC5COC(Cn6cncn6)(c6ccc(Cl)cc6Cl)O5)cc4)CC3)cc2)c1=O (stereo not shown) [Itraconazole mixture, itraconazole] |  |  |  | competed | inhibited |
